Patent US20240299328A1, “COMPOSITIONS COMPRISING 15-HEPE AND METHODS OF TREATING AND/OR PREVENTING HEMATOLOGIC DISORDERS AND RELATED DISEASES” (Afimmune Limited, priority 2023, published 2024)
Like-named read-outs stand apart in the source and are kept apart here.

Assays:
[1] = tested on: α-SMA, TIMP-1, TGF-β and Collagen Type 1 mRNA; test: BDL study: quantitative RT-PCR of liver; type: in vivo; settings: BDL mice liver, normalized to 36B4, Day 14, mean ± SD
Procedure: Quantitative RT-PCR: Total ribonucleic acid (RNA) was extracted from liver samples using RNAiso. One μg of RNA was reverse-transcribed using a reaction mixture containing 4.4 mM magnesium chloride (MgCl2), 40 U RNase inhibitor, 0.5 mM dNTP, 6.28 μM random hexamer, 5× first strand buffer, 10 mM dithiothreitol and 200 U MMLV-RT in a final volume of 20 μL. The reaction was carried out for 1 hour at 37° C., followed by 5 minutes at 99° C. Real-time PCR was performed using real-time PCR DICE and TB Green™ Premix Ex Taq™ II. To calculate the relative mRNA expression level, the expression of each gene (α-SMA, TIMP-1, TGF-β and Collagen Type 1) was normalized to that of reference gene 36B4 (gene symbol: Rplp0). Information regarding the PCR-primer sets and the plate layout are described in Tables 8 and 9.

[2] = tested on: UUO mice; type: in vivo
Procedure: UUO Surgery: On day 0 of the study, UUO surgery was performed on mice under pentobarbital sodium anesthesia. The mouse's hair was first shaved and then abdomen cut open to exteriorize the mouse's left ureter. The ureter was ligated 4-0 nylon sutures at two points. The mouse's peritoneum and skin were then closed with sutures, and the mouse transferred to a clean cage until recovered from the anesthesia. Sham operated mice had their left ureter exposed but not ligated. […]
Animals: Seven-week-old female C57BL/6 mice (i.e., animals) were obtained and were housed and fed with a normal diet under controlled conditions. The animals were maintained in a specific-pathogen free (SPF) facility under controlled conditions of temperature (e.g., 23±2° C.), humidity (e.g., 45±10%), lighting (e.g., 12-hour artificial light and dark cycles; light from 8:00 to 20:00) and air exchange. A high pressure was maintained in the experimental room to prevent contamination of the facility. The animals were housed in TPX cages with a maximum of 4 mice per cage. Sterilized Paper-Clean was used for bedding and replaced once a week. Sterilized solid normal diet was provided ad libitum, being placed in a metal lid on the top of the cage. Pure water was also provided ad libitum from a water bottle equipped with a rubber stopper and a sipper tube. Water bottles were replaced once a week, cleaned, and sterilized in an autoclave and reused. Mice were identified by ear punch and each cage was labeled with a specific identification code.
Animal Monitoring and Sacrifice: The viability, clinical signs and behavior for the mice were monitored daily. Individual body weight was measured daily before treatment during the treatment period. […] The animals were sacrificed by exsanguination through direct cardiac puncture under isoflurane anesthesia at Day 14.

[3] = tested on: NAFLD patients
From the text: Safety Assessments included the following: medical history; physical examination; ECG; vital signs; clinical laboratory safety tests (e.g., hematology, serum biochemistry, coagulation, lipid profile, and urinalysis); virology; pregnancy test; blood sampling; pharmacokinetic sampling; exploratory blood collection; biomarker blood collection; urine DOA and alcohol breath test; adverse event assessment; concomitant medication; bioanalysis; sample, storage, handling; and shipping; and restrictions. A detailed description of each is provided below.
AEs were recorded in the case report form, defining relationship to IMP and severity.
SAE: If a patient experienced a serious adverse event after the first dose of the study drug, the event was recorded as a SAE. A SAE is characterized as an untoward medical occurrence at any dose to include any of the following: results in death, is life threatening, requires in-patient hospitalization or prolongation of existing hospitalization, or results in persistent or significant disability/incapacity. The term “life-threatening” refers to an event in which the patient was at risk of death at the time of the event.
Safety Analysis: Demographic, medical history and physical examination data were listed for each patient and summarized descriptively. All AEs recorded during the study were coded to system organ class and preferred terms using the current version of the Medical Dictionary for Regulatory Activities (MedDRA). AEs were tabulated and summarized by treatment, relationship to treatment, seriousness and severity. Clinical laboratory values (e.g., hematology, biochemistry, and urinalysis) were listed for each patient by treatment and day. Values outside the laboratory normal ranges were listed separately with associated comments as to their clinical significance, with potentially clinically significant abnormalities highlighted and summarized by treatment. Clinical laboratory values obtained prior to dosing were defined as baseline values. Alcohol breath test and DOA test results were listed for each patient. Individual values of vital signs were listed and summarized descriptively for each treatment and day. 12 lead ECG assessments were listed for each patient with all associated comments and summarized by treatment and day. Concomitant medications (if any), categorized by medication group and subgroup according to the latest version of the World Health Organization drug dictionary, were listed and summarized by treatment. In general, appropriate descriptive statistics according to the nature of the variable were applied. Categorical variables were presented using counts and percentage, whilst continuous variables were presented using mean, standard deviation, median, minimum, maximum, coefficient of variation and number of patients.

[4] = 50 mg/kg PO QD Day 0-13, Day 14, mean ± SD
[5] = 500 mg/kg PO QD Day 0-13, Day 14, mean ± SD

With CC/C=C\C[C@H](O)/C=C/C=C\C/C=C\C/C=C\CCCC(=O)OCC [DS102, 15(S)-hydroxy-(5Z,8Z,11Z,13E,17Z)-eicosapentaenoic acid ethyl ester] the “Alpha-SMA mRNA expression level” value ([1]; 50 mg/kg PO QD Day 0-13) was 3.21 ± 1.67, the “Collagen Type 1 mRNA expression level” value ([1]; 50 mg/kg PO QD Day 0-13) was 4.94 ± 2.76 and the “TGF-β mRNA expression level” value ([1]; 50 mg/kg PO QD Day 0-13) was 1.48 ± 0.48. For the same molecule, the “TIMP-1 mRNA expression level” value ([1]; 50 mg/kg PO QD Day 0-13) was 43.82 ± 26.19, the “Alpha-SMA mRNA expression level” value ([1]; 250 mg/kg PO QD Day 0-13) was 2.66 ± 1.33 and the “Collagen Type 1 mRNA expression level” value ([1]; 250 mg/kg PO QD Day 0-13) was 4.21 ± 1.90. For the same molecule, the “TGF-β mRNA expression level” value ([1]; 250 mg/kg PO QD Day 0-13) was 1.50 ± 0.44, the “TIMP-1 mRNA expression level” value ([1]; 250 mg/kg PO QD Day 0-13) was 30.65 ± 16.80 and the “Body Weight” value [2, 4] was 18.8 ± 0.6 g. The “Left Kidney Weight” value [2, 4] was 469 ± 60 mg, the “Right Kidney Weight” value [2, 4] was 133 ± 10 mg and the “Body Weight” value [2, 5] was 18.7 ± 0.5 g. For the same molecule, the “Left Kidney Weight” value [2, 5] was 487 ± 108 mg, the “Right Kidney Weight” value [2, 5] was 136 ± 6 mg and the “AEs leading to treatment discontinuation” value ([3]; 1 g DS102 (n = 32)) was 0 n (%). For the same molecule, the Death ([3]; 1 g DS102 (n = 32)) was 0 n (%), the “Patients with ≥1 AE” value ([3]; 1 g DS102 (n = 32)) was 19 (59.4) n (%) and the “Patients with ≥1 AE related to study drug” value ([3]; 1 g DS102 (n = 32)) was 2 (6.3) n (%). For the same molecule, the “Patients with ≥1 SAE” value ([3]; 1 g DS102 (n = 32)) was 0 n (%), the “SAEs related to drug study” value ([3]; 1 g DS102 (n = 32)) was 0 n (%) and the “AEs leading to treatment discontinuation” value ([3]; 2 g DS102 (n = 30)) was 0 n (%). The Death ([3]; 2 g DS102 (n = 30)) was 0 n (%), the “Patients with ≥1 AE” value ([3]; 2 g DS102 (n = 30)) was 15 (50.0) n (%) and the “Patients with ≥1 AE related to study drug” value ([3]; 2 g DS102 (n = 30)) was 3 (10.0) n (%). The “Patients with ≥1 SAE” value ([3]; 2 g DS102 (n = 30)) was 1 (3.3) n (%), the “SAEs related to drug study” value ([3]; 2 g DS102 (n = 30)) was 0 n (%) and the safety and tolerance ([3]; NAFLD patients, 1 g or 2 g per day, 16 weeks, compared to placebo) was “safe and well tolerated”.
